Assay results from paper PMC3652823 (PLoS ONE, 2013).
Read-outs that look alike come from different tables or passages of the source.

Tests used:
[1] = test system: GI membrane; experiment: GI membrane toxicity by morphological observation; type: in vivo, rat; conditions: rats, oral, COS 25 mg/kg
Method: After in vivo pharmacokinetics experiments were carried out for 8 h, the GI was wash with HBSS (pH 7.4) and the segments were removed and immersed in the 4% neutral paraform aldehyde buffer and fixed. Vertical sections were prepared, stained with hematoxylin-eosin, and examined by light microscopy. To be able to describe possible changes in the structure of the tissue, tissues were studied and evaluated for morphological changes using the following parameters: Measurement of the distance between the nucleus and the apical membrane in enterocytes with a measuring-rod. Five measurements in each villus and five villi were measured in each slide. The villi were randomly chosen and measurements were all conducted at the tips of the villi. Villus index was used for duodenum, jejunum and ileum and crypt index for colon. Measurement of height (villi) or depth (crypt) and width (one-half of height or depth) was done with a measuring-rod of five villi/crypts in each slide that were randomly chosen. Height/depth was divided with width to receive the index.

[2] = test system: influenza virus strain, A/PR8/34(H1N1); experiment: Antiviral effect of serum after oral administration on influenza virus in MDCK cells (MTT); type: cell-based; conditions: COS 25 mg/kg, ribavirin 20 mg/kg, MTT after 48 h
[3] = rat, in vivo, po, cited from earlier work
[4] = rat, in vivo, po; cited from earlier work
[5] = in vivo; conditions: male, SD, rat, po
[6] = test system: Caco-2 cell monolayers; type: in vitro ADME, human
Method: Caco-2 cells were cultured in high glucose DMEM with 10% fetal bovine serum, 1% nonessential amino acids. Cells were cultured in a humidified atmosphere of 5% CO2 at 37°C. After reaching 80% confluens, Caco-2 cells were harvested with 0.05% trypsin-EDTA solution and seeded on top of CC inserts in 6-well plates, which has a surface area of 4.2 cm^2, at a density of 1.0×10^5 cells/cm^2. The protocols for cell culture in Transwell inserts were similar to those described previously.
Hank’s balanced salt solution (HBSS) was used as the transport buffer for the transport study in Caco-2 cell monolayer model. It was prepared by dissolving 9.5 grams of commercial available HBSS powder in 1000 mL water. The pH value of the buffer was adjusted to pH 6.0 by 85% of phosphoric acid.
Cell culture experiments were described previously. Briefly, after culture medium was aspirated, the cell monolayers were washed three times with blank HBSS. The transepithelial electrical resistance (TEER) values of cell monolayers were measured, which were more than […]. The monolayers were incubated with the blank HBSS for 1 h with 37°C. Thereafter the incubation medium was aspirated. […] The amounts of transported compound were measured as a function of time by UPLC-MS method described previously. […] At the end of the transport experiment, integrity of the monolayer was monitored by TEER value.

[7] = rat, in vivo, po
[8] = biological target: protein kinase C (PKCα); parameters: method as in earlier work; conditions: read-out: IC50, inhibition of protein kinase C (PKCα); cited from earlier work
[9] = parameters: method as in Gao et al. (2008) [16]; conditions: in situ loop method in rats; ref Gao et al. (2008) [16]; cited from earlier work

For Triton X-100, the Nucleo-apical distance ([1]; duodenum, jejunum and ileum, Triton X-100 200 mg/kg, vs PBS group) was “remarkable decrease”, the villi/crypt index ([1]; duodenum, jejunum, ileum and colon, Triton X-100 200 mg/kg, vs PBS group) was “remarkable decrease” and the “morphology of the GI membrane (HE sections: stomach, jejunum, colon)” value ([1]; Triton X-100 200 mg/kg as positive control) was “could cause mucosal damage seriously”.

With `NC(=O)c1ncn([C@@H]2O[C@H](CO)[C@@H](O)[C@H]2O)n1` [ribavirin] the “inhibition rate on influenza virus compared with PBS group” value [2] was “remarkable increase”.

For `O=C(/C=C/c1ccc(O)c(O)c1)O[C@@H]1C[C@](O)(C(=O)O)C[C@@H](O)[C@H]1O` [CHA, Chlorogenic acid], the “T 1/2z” value ([3]; 60 mg/kg) is given as 1.05 h, the “T 1/2λz” value [4] is given as 3.63 h and the T max [4] is given as 0.75 h. The absolute bioavailability orally [4] was “about 0.69%” and the AUC(0-t) [5] was 144 ng·h/mL.

For Chito-oligosaccharide [COS], the “effect on the P app-value for FTA and CHA compared to the control group” value [6] was “significant, concentration-dependent increase”, the “CHA AUC0-480 min” value ([7]; 12.5 mg/kg) was 52938.0±3520.0 ng⋅min/mL and the “FTA AUC0-480 min” value ([7]; 12.5 mg/kg) was 2874.7±564.9 ng⋅min/mL. The “CHA AUC0-480 min” value ([7]; 25 mg/kg) was 296980.0±36456.0 ng⋅min/mL, the “FTA AUC0-480 min” value ([7]; 25 mg/kg) was 6286.0±1329.7 ng⋅min/mL and the “CHA AUC0-480 min” value ([7]; 50 mg/kg) was 152641.5±72581.0 ng⋅min/mL. For the same molecule, the “FTA AUC0-480 min” value ([7]; 50 mg/kg) was 3143.0±572.1 ng⋅min/mL.

For `C[C@@H]1O[C@@H](OC[C@H]2O[C@@H](OCCc3ccc(O)c(O)c3)[C@H](O)[C@@H](O)[C@@H]2OC(=O)/C=C/c2ccc(O)c(O)c2)[C@H](O)[C@H](O)[C@H]1O` [FTA, forsythoside A], the “T 1/2λz” value ([3]; 100 mg/kg) is given as 1.24 h, the IC50 [8] is given as 1900 nM and the “T 1/2λz” value [4] is given as 6.72 h. For the same molecule, the T max [4] was 0.75 h, the absolute bioavailability orally [4] was about 0.72% and the AUC(0-t) [5] was 28.5 ng·h/mL.

For `N[C@H]1[C@H](O[C@H]2[C@H](O)[C@@H](N)[C@H](O[C@H]3[C@H](O)[C@@H](N)[C@H](O[C@H]4[C@H](O)[C@@H](N)[C@H](O[C@H]5[C@H](O)[C@@H](N)[C@H](O[C@H]6[C@H](O)[C@@H](N)C(O)O[C@@H]6CO)O[C@@H]5CO)O[C@@H]4CO)O[C@@H]3CO)O[C@@H]2CO)O[C@H](CO)[C@@H](O)[C@@H]1O` (some centres unmarked) [chitosan hexamer], the “increase of the bioavailability of insulin and FDs” value [9] is listed as “about 2.5 times”.
